Literature values in patent US8278268B2, “Combination therapy comprising glucose reabsorption inhibitors and PPAR modulators” (Ortho-McNeil Pharmaceutical, Inc., priority 2001, dated 2012).
Read-outs that look alike come from different tables or passages of the source.

Key:
SGLT2 (SAAT1) = settings: cited from earlier work; for Km: for D-glucose
SGLT1 = SGLT1 (Homo sapiens, UniProt P13866); settings: read-out: Km in vitro; Sm. Intestine; stoichiometry 2:1; for D-glucose; cited from earlier work
Sequence of SGLT1 (P13866 whole entry, species assumed): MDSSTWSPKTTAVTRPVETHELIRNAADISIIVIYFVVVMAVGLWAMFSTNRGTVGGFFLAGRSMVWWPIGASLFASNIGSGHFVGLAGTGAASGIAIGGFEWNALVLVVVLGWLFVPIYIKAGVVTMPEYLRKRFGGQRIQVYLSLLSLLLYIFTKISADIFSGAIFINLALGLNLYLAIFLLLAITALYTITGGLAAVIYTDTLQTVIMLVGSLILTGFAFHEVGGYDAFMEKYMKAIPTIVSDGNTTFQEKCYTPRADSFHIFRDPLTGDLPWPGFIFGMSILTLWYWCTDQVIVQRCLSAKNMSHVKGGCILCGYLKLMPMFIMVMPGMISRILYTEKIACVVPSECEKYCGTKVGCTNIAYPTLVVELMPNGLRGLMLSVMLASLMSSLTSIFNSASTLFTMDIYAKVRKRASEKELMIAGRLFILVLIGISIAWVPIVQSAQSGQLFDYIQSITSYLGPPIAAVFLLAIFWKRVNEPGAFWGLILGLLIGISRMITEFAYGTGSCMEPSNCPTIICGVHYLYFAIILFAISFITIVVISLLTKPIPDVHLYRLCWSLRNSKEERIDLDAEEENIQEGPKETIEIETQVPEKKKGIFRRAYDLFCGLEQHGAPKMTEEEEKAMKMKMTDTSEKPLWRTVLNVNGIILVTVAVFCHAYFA

## O=C[C@H](O)[C@@H](O)[C@H](O)[C@H](O)CO [D-glucose]
SGLT2 (SAAT1); Kidney (S1, S3), stoichiometry 2:1
  TmG in vitro (maximal transport rate): 7.9 pmol/min/mm
SGLT2 (SAAT1); Kidney (S1, S3), stoichiometry 2:1, read-out: Km in vitro
  Km: 390 µM
SGLT2 (SAAT1); Kidney (S1, S3), stoichiometry 2:1, read-out: Km in vivo
  Km: 300 µM
SGLT2 (SAAT1); Kidney (S3), stoichiometry 1:1
  TmG in vitro (maximal transport rate): 83 pmol/min/mm
SGLT2 (SAAT1); Kidney (S3), stoichiometry 1:1, read-out: Km in vitro
  Km: 1640 µM
SGLT2 (SAAT1); Kidney (S3), stoichiometry 1:1, read-out: Km in vivo
  Km: 6000 µM
SGLT1
  Km: 100 µM
